Assay results: patent US20110021515A1, “DIHYROFUROPYRMINDINE COMPOUNDS” (TAKEDA PHARMACEUTICAL COMPANY LIMITED, priority 2009, published 2011)

Target: T1, human mTOR (Homo sapiens, UniProt P42345)
T1 construct: purchased Invitrogen
Assay: Inhibition of mTOR (LanthaScreen TR-FRET, GFP-4E-BP1 substrate)
Assay type: biochemical
Settings: purified mTor, GFP-4E-BP1 and ATP, 30 min at room temperature; read-out: pIC50 for inhibition of human mTOR in the assay of Example A (converted)
Experimental: Example A Inhibition of mTOR
Purified mTor are purchased from Invitrogen. mTor activity was determined using Invitrogen's LanthaScreen system. The inhibitory properties of compounds relative to mTor may be determined using a black 384-well-plate format in the following buffer 50 mM Hepes, 10 mM NaCl, 10 mM MgCl2, 0.2 mM EDTA, 0.01% Brij35, 2 mM DTT at pH7.3. The test compound is prepared in DMSO using 2 fold serial dilutions for 11 data points which are added to the buffer so that each dilution contains 3% DMSO.
An assay for mTor inhibition is as follows:
Combine in each well 2 μl of 1.2 μM GFP-4E-BP1 (Invitrogen) and 150 μM ATP (in buffer), 2 μl of diluted test compound (3% DMSO in buffer), and 2 μl of 6 nM mTor in buffer. The reaction mixture is then incubated at room temperature for 30 min, and quenched by adding 40 mM ETDA with 4 nM Tb-anti-p4E-BP1 [pThr46] antibody in TR-FRET dilution buffer (Invitrogen). The plate is kept at room temperature for 1 hour and then read using PheraStar (BMG labtech) LanthaScreen mode.
pIC50 values, the negative of the log of the IC50, are calculated by non-linear curve fitting of the compound concentrations and percent of inhibition to the standard pIC50 equation.

Row | SMILES | IC50 [nM]
1 | CNC(=O)Nc1ccc(-c2nc(N3CCOCC3)c3c(n2)C(C)(C)CO3)cc1 [Example 2, 1-(4-(7,7-dimethyl-4-morpholino-6,7-dihydrofuro[3,2-d]pyrimidin-2-yl)phenyl)-3-methylurea] | < 31.6
2 | CNC(=O)Nc1ccc(-c2nc(N3CC4CCC(C3)O4)c3c(n2)C(C)(C)CO3)cc1 [Example 4, 1-(4-(4-(8-oxa-3-azabicyclo[3.2.1]octan-3-yl)-7,7-dimethyl-6,7-dihydrofuro[3,2-d]pyrimidin-2-yl)phenyl)-3-methylurea] | < 31.6
3 | CNC(=O)Nc1ccc(-c2nc(N3CC4CCC(C3)O4)c3c(n2)C(C)(C)OC3)cc1 [Example 6, 1-(4-(4-(8-oxa-3-azabicyclo[3.2.1]octan-3-yl)-7,7-dimethyl-5,7-dihydrofuro[3,4-d]pyrimidin-2-yl)phenyl)-3-methylurea] | < 31.6
4 | CNC(=O)Nc1ccc(-c2nc(N3CCOCC3)c3c(n2)C(C)(C)OC3)cc1 [Example 8, 1-(4-(7,7-dimethyl-4-morpholino-5,7-dihydrofuro[3,4-d]pyrimidin-2-yl)phenyl)-3-methylurea] | < 31.6
5 | CCNC(=O)Nc1ccc(-c2nc(N3CC4CCC(C3)O4)c3c(n2)C(C)(C)OC3)cc1 [Example 9, 1-(4-(4-(8-oxa-3-azabicyclo[3.2.1]octan-3-yl)-7,7-dimethyl-5,7-dihydrofuro[3,4-d]pyrimidin-2-yl)phenyl)-3-ethylurea] | < 31.6
6 | CCNC(=O)Nc1ccc(-c2nc(N3CCOCC3)c3c(n2)C(C)(C)OC3)cc1 [Example 10] | < 31.6
7 | CC1(C)OCc2c(N3CCOCC3)nc(-c3ccc(NC(=O)NC4CC4)cc3)nc21 [Example 11, 1-cyclopropyl-3-(4-(7,7-dimethyl-4-morpholino-5,7-dihydrofuro[3,4-d]pyrimidin-2-yl)phenyl)urea] | < 31.6
8 | CNC(=O)Nc1ccc(-c2nc(N3CC4CCC(C3)O4)c3c(n2)C(C)(O)OC3)cc1 (stereo not drawn) [Example 12, 1-(4-(4-(8-oxa-3-azabicyclo[3.2.1]octan-3-yl)-7-hydroxy-7-methyl-5,7-dihydrofuro[3,4-d]pyrimidin-2-yl)phenyl)-3-methylurea] | 31.6 to 1000
9 | CNC(=O)Nc1ccc(-c2nc(N3CC4CCC(C3)O4)c3c(n2)C2(CC2)OC3)cc1 [Example 13, 1-(4-(4′-(8-oxa-3-azabicyclo[3.2.1]octan-3-yl)-5′H-spiro[cyclopropane-1,7′-furo[3,4-d]pyrimidine]-2′-yl)phenyl)-3-methylurea] | < 31.6
10 | CCNC(=O)Nc1ccc(-c2nc(N3CCOCC3)c3c(n2)C2(CC2)OC3)cc1 [Example 14, 1-ethyl-3-(4-(4′-morpholino-5′H-spiro[cyclopropane-1,7′-furo[3,4-d]pyrimidine]-2′-yl)phenyl)urea] | < 31.6
11 | O=C(Nc1ccc(-c2nc(N3CCOCC3)c3c(n2)C2(CC2)OC3)cc1)NC1CC1 [Example 15, 1-cyclopropyl-3-(4-(4′-morpholino-5′H-spiro[cyclopropane-1,7′-furo[3,4-d]pyrimidine]-2′-yl)phenyl)urea] | < 31.6
12 | CNC(=O)Nc1ccc(-c2nc(N3CCOCC3)c3c(n2)C2(CC2)OC3)cc1 [Example 16, 1-methyl-3-(4-(4′-morpholino-5′H-spiro[cyclopropane-1,7′-furo[3,4-d]pyrimidine]-2′-yl)phenyl)urea] | < 31.6
